Results on eight compounds are retold here after PubChem BioAssay (NCI).

What all share (experiment): inhibition of tumour cell growth, NCI panel, 48 h
The test system of assay [1] is A549 NSCLC.
For assay [2], the system named is NCI-H23 lung.
Assay [3] concerns HOP-92 NSCLC.
Assay [4] deals with SF-539 CNS.
Assay [5] deals with DU-145 prostate.
Assay [6] has as its system SK-OV-3 ovarian.
The subject of assay [7] is 786-0 renal.
The test system of assay [8] is ACHN renal.
Assay [9] relates to KM12 colon.
Assay [10] has as its system SK-MEL-2 melanoma.

Structures are written as SMILES.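 Each compound was tested at five concentrations against cells in 96-well plates for 48 hours. GI50 marks 50% less growth. TGI denotes the concentration required for complete inhibition of growth.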 Bounds are passed on as bounds.

For `CCOCC(=O)N[C@H]1CCc2cc(OC)c(OC)c(OC)c2-c2ccc(SC)c(=O)cc21`, the TGI was > 100 µM in assay [1]; 9.64 µM in assay [2]; > 100 µM in [3]; < 0.01 µM in [4]; 0.0582 µM in [5]; 0.398 µM in assay [6]. In addition, the TGI was > 88 µM in assay [7], > 35.7 µM in assay [8] and < 0.0631 µM in [9].
`Nc1ccc(N=Nc2ccccc2)c(N)n1`: the GI50 was 27.4 µM in [1]; 31.9 µM in assay [2]; 14.8 µM in assay [3]; 29.9 µM in assay [4]; 25.2 µM in assay [5]; 30.1 µM in [6]. Also, the GI50 in assay [7] was 20.8 µM; in assay [8] it was 37.2 µM; in assay [9], 15.5 µM. Besides, the TGI in assay [1] is > 100 µM; in [2], > 100 µM; in assay [3], 65.9 µM; in [4], > 100 µM; in assay [5], 81 µM; in assay [6] it was > 100 µM. Also, the TGI in assay [7] was 44.4 µM; in [8], > 100 µM; in [9], 56.6 µM.
In the case of `CCN(CC)c1ccc(N=C2C=C(C(=O)Nc3ccc(S(C)(=O)=O)cc3)C(=O)c3ccccc32)c(C)c1`, the GI50 in [1] is 49.6 µM; in assay [2], 82 µM; in assay [3], > 100 µM; in assay [4], 1.07 µM; in assay [5], > 100 µM; in assay [6], 9.45 µM. In addition, the values for the GI50 in [7], in [8] and in assay [9] were > 100 µM, > 100 µM and 1.03 µM, respectively. Besides, the TGI in assay [1], in assay [2], in assay [3], in assay [4], in assay [5] and in assay [6] was > 100 µM each time. Besides, the TGI in [7], in assay [8] and in assay [9] was > 100 µM each time.
Regarding `O=C(Cn1c(=O)c(-c2ccccc2)nc2ccccc21)c1cccnc1`, the GI50 in [1] was > 100 µM; in [2] it was > 100 µM; in assay [3] it was 27.7 µM; in assay [5] it was > 100 µM; in assay [6], > 100 µM; in assay [7] it was > 100 µM. For the same compound, the GI50 in assay [10], in assay [8] and in assay [9] was > 100 µM throughout. In addition, the TGI in assay [1], in [2], in assay [3], in assay [5], in [6] and in assay [7] was > 100 µM in each case. Moreover, the TGI in assay [10], in assay [8] and in assay [9] was > 100 µM throughout.
In the case of `Nc1nc2c(c3ncccc13)C(c1ccc(Cl)c(Cl)c1)Cc1ncccc1-2` (stereo not drawn), the GI50 is 4.24 µM in [1]; 5.59 µM in [2]; 2.15 µM in assay [4]; 3.6 µM in assay [5]; 3.49 µM in assay [6]; 3.49 µM in [7]. Moreover, the GI50 in assay [10] is 3.79 µM; in assay [8], 4.55 µM; in [9] it was 2.73 µM. The TGI in assay [1] turned out to be 15.3 µM; in [2] it was 21.6 µM; in [4], 5.35 µM; in assay [5], 12.5 µM; in [6] it was 12.6 µM; in assay [7] it was 13.4 µM. Moreover, the TGI in assay [10] came out at 15.8 µM; in assay [8] it was 16 µM; in assay [9], 14.4 µM.
For the compound `NC(N)=N/N=C/c1c(-c2cccs2)nc2sccn12`, the GI50 in [1] is 21.7 µM; in assay [2] it was 14.3 µM; in [4], 12.4 µM; in [5], 13.6 µM; in assay [6], 13 µM; in assay [7], 9.61 µM. Also, the GI50 is 13.2 µM in assay [8] and 8.24 µM in assay [9]. The TGI was 45.1 µM in [1]; 29 µM in [2]; 25.5 µM in assay [4]; 26.4 µM in [5]; 25.7 µM in assay [6]; 21.4 µM in [7]. The TGI in assay [8] was found to be 26.5 µM; in [9] it was 20.7 µM.
With `CN(C)/C=C/c1nnnn1-c1ccc(Cl)cc1`, the GI50 in assay [1] is 30.5 µM; in assay [2], 11.8 µM; in [4], 16.5 µM; in [5], 14.2 µM; in assay [6], 24.1 µM; in assay [7] it was 14.8 µM. Further, the results for the GI50 in assay [10], in [8] and in assay [9] were 13.2 µM, 24.7 µM and 22 µM, respectively. Also, the TGI was > 100 µM in assay [1]; 29.8 µM in [2]; 44.4 µM in assay [4]; 64.3 µM in [5]; 81.6 µM in [6]; 56.3 µM in [7]. For the same compound, the values for the TGI in [10], in [8] and in assay [9] were > 100 µM, > 100 µM and 64.8 µM, respectively.
As to `COc1ccc(Nc2ncccc2/C=C/C(=O)c2cc(OC)c(OC)c(OC)c2)cc1`, the GI50 was 1.72 µM in assay [2]; 1.59 µM in [3]; 2.04 µM in [4]; 1.59 µM in [5]; 2.72 µM in assay [6]; 1.69 µM in [7]. In addition, the GI50 in assay [10] is 1.47 µM; in assay [8], 1.55 µM; in [9] it was 1.69 µM. Besides, the TGI came out at 3.79 µM in assay [2]; 4.28 µM in assay [3]; 5.15 µM in [4]; 2.93 µM in assay [5]; 8.56 µM in [6]; 3.22 µM in [7]. Also, the results for the TGI in assay [10], in assay [8] and in assay [9] were 2.99 µM, 2.96 µM and 3.22 µM, respectively.
